Data from the NIST ThermoML archive (doi:10.1021/je049867t).
± gives the expanded uncertainty stated by the source.

How the values were obtained:
[1] = refractive index (Na D-line) (dimensionless); settings: 293.15 K; 101.33 kPa; Liquid; Standard Abbe refractometry
[2] = Liquid
[3] = 308.15 K, Ebulliometric method (Recirculating still)
[4] = 318.15 K, Ebulliometric method (Recirculating still)
[5] = 323.15 K, Ebulliometric method (Recirculating still)

| refractive index [1] | vapor or sublimation pressure ([2]; 298.02 K) [kPa] | vapor or sublimation pressure ([2]; 306.98 K) [kPa] | vapor or sublimation pressure ([2]; 318.15 K) [kPa] | vapor or sublimation pressure ([2]; 319.2 K) [kPa] | vapor or sublimation pressure ([2]; 327.9 K) [kPa] | vapor or sublimation pressure ([2]; 334.78 K) [kPa] | vapor or sublimation pressure ([2]; 340.52 K) [kPa] | vapor or sublimation pressure ([2]; 345.48 K) [kPa] | vapor or sublimation pressure ([2]; 349.85 K) [kPa] | vapor or sublimation pressure ([2]; 353.81 K) [kPa] | vapor or sublimation pressure ([2]; 355.64 K) [kPa] | Compound | vapor or sublimation pressure [2, 3] [kPa] | vapor or sublimation pressure [2, 4] [kPa] | vapor or sublimation pressure [2, 5] [kPa] |
| --- | --- | --- | --- | --- | --- | --- | --- | --- | --- | --- | --- | --- | --- | --- | --- |
| 1.3862 ± 0.0009 | 10 ± 0.09 | 15 ± 0.1 | 23.99 ± 0.19 | 25 ± 0.13 | 35 ± 0.15 | 45 ± 0.18 | 55 ± 0.21 | 65 ± 0.24 | 75 ± 0.27 | 85 ± 0.3 | 90 ± 0.32 | CCC(C)(C)OC [2-methoxy-2-methylbutane] | – | – | – |
| 1.3698 ± 0.0007 | – | – | – | – | – | – | – | – | – | – | – | COC(C)(C)C [2-methoxy-2-methylpropane] | 49.48 ± 0.15 | 71.41 ± 0.17 | 84.91 ± 0.18 |

| Compound | refractive index [1] | vapor or sublimation pressure ([2]; 298.02 K) [kPa] | vapor or sublimation pressure ([2]; 306.98 K) [kPa] | vapor or sublimation pressure ([2]; 318.15 K) [kPa] | vapor or sublimation pressure ([2]; 319.2 K) [kPa] | vapor or sublimation pressure ([2]; 327.9 K) [kPa] | vapor or sublimation pressure ([2]; 334.78 K) [kPa] | vapor or sublimation pressure ([2]; 340.52 K) [kPa] | vapor or sublimation pressure ([2]; 345.48 K) [kPa] | vapor or sublimation pressure ([2]; 349.85 K) [kPa] | vapor or sublimation pressure ([2]; 353.81 K) [kPa] | vapor or sublimation pressure ([2]; 355.64 K) [kPa] | vapor or sublimation pressure [2, 3] [kPa] | vapor or sublimation pressure [2, 4] [kPa] | vapor or sublimation pressure [2, 5] [kPa] |
| --- | --- | --- | --- | --- | --- | --- | --- | --- | --- | --- | --- | --- | --- | --- | --- |
| Cc1ccccc1 [toluene] | 1.4965 ± 0.0007 | – | – | – | – | – | – | – | – | – | – | – | 6.18 ± 0.1 | 9.88 ± 0.1 | 12.28 ± 0.1 |
